# Results: PMC12406253, “Exploration of the Neuromodulatory Properties of Fyn and GSK-3β Kinases Exploiting 7‑Azaindole-Based Inhibitors” (Journal of Medicinal Chemistry, 2025)
# How the values were obtained:
# GSK3β(h) = GSK3β(h) (Homo sapiens, UniProt P49841); test: Eurofins KinaseProfiler radiometric kinase assay; conditions: read-out: GSK3β(h) % Residual activity
# PI3 Kinase (p120γ)(h) = target: T1, PI3 Kinase (p120γ)(h) (Homo sapiens, UniProt P48736); test: Eurofins KinaseProfiler radiometric kinase assay; type: biochemical; conditions: read-out: PI3 Kinase (p120γ)(h) % Residual activity
# T1 construct: purchased Eurofins (Eurofins Cerep) KinaseProfiler
# EphB4(h) = target: T2, EphB4(h) (Homo sapiens, UniProt P54760); test: Eurofins KinaseProfiler radiometric kinase assay; type: biochemical; conditions: read-out: EphB4(h) % Residual activity
# T2 construct: purchased Eurofins KinaseProfiler (Eurofins Cerep)
# Pim-1(h) = target: T3, Pim-1(h) (Homo sapiens, UniProt P11309); test: Eurofins KinaseProfiler radiometric kinase assay; type: biochemical; conditions: read-out: Pim-1(h) % Residual activity
# T3 construct: purchased Eurofins KinaseProfiler (Eurofins Cerep)
# CK1γ1(h) = target: T4, CK1γ1(h) (Homo sapiens, UniProt Q9HCP0); test: Eurofins KinaseProfiler radiometric kinase assay; type: biochemical; conditions: read-out: CK1γ1(h) % Residual activity
# T4 construct: purchased Eurofins KinaseProfiler (Eurofins Cerep)
# [1] = test system: immortalized murine microglia N9; test: Immunomodulation in LPS-treated N9 microglia, Western blot of iNOS and TREM2; conditions: 2.5 and 5 μM; 100 ng/mL LPS, 24 h
# Protocol: To gain a conclusive answer on the potential role of these kinase inhibitors in counteracting neuroinflammatory processes, after the verified induced astrocytic polarization, the ability of selected compounds to modulate inflammatory response was analyzed by favoring the immunomodulatory switch from neurotoxic M1 phenotype of microglia to phagocytic and neuroprotective M2 phenotype, evaluating inducible nitric oxide synthase (iNOS) and TREM2 as M1 and M2 markers (Figure ).
# The microglial phenotype was evaluated through Western blot analysis of the pro-inflammatory iNOS and anti-inflammatory-TREM2 markers.
# IGF-1R(h) = target: T5, IGF-1R(h) (Homo sapiens, UniProt P08069); test: Eurofins KinaseProfiler radiometric kinase assay; type: biochemical; conditions: read-out: IGF-1R(h) % Residual activity
# T5 construct: purchased Eurofins KinaseProfiler (Eurofins Cerep)
# FYNα [2] = target: T6, FYNα (Homo sapiens, UniProt P06241); test: FYNα kinase assay, LANCE Ultra TR-FRET; type: biochemical; conditions: mean ± SD of at least three independent determinations; ATP near Km; read-out: Fyn IC50
# ASK1(h) = target: T7, ASK1(h) (Homo sapiens, UniProt Q99683); test: Eurofins KinaseProfiler radiometric kinase assay; type: biochemical; conditions: read-out: ASK1(h) % Residual activity
# T7 construct: purchased Eurofins KinaseProfiler (Eurofins Cerep)
# PKG1α(h) = target: T8, PKG1α(h) (Homo sapiens, UniProt Q13976); test: Eurofins KinaseProfiler radiometric kinase assay; type: biochemical; conditions: read-out: PKG1α(h) % Residual activity
# T8 construct: purchased Eurofins KinaseProfiler (Eurofins Cerep)
# c-RAF(h) = target: T9, c-RAF(h) (Homo sapiens, UniProt P04049); test: Eurofins KinaseProfiler radiometric kinase assay; type: biochemical; conditions: read-out: c-RAF(h) % Residual activity
# T9 construct: purchased Eurofins KinaseProfiler (Eurofins Cerep)
# CDK2/cyclinA(h) = target: T10, CDK2/cyclinA(h) (Homo sapiens, UniProt P24941); test: Eurofins KinaseProfiler radiometric kinase assay; type: biochemical; conditions: read-out: CDK2/cyclinA(h) % Residual activity
# T10 construct: purchased Eurofins KinaseProfiler (Eurofins Cerep)
# IRAK4(h) = target: T11, IRAK4(h) (Homo sapiens, UniProt Q9NWZ3); test: Eurofins KinaseProfiler radiometric kinase assay; type: biochemical; conditions: read-out: IRAK4(h) % Residual activity
# T11 construct: purchased Eurofins KinaseProfiler (Eurofins Cerep)
# CDK1/cyclinB(h) = target: T12, CDK1/cyclinB(h) (Homo sapiens, UniProt P06493); test: Eurofins KinaseProfiler radiometric kinase assay; type: biochemical; conditions: read-out: CDK1/cyclinB(h) % Residual activity
# T12 construct: purchased Eurofins KinaseProfiler (Eurofins Cerep)
# eEF-2K(h) = target: T13, eEF-2K(h) (Homo sapiens, UniProt O00418); test: Eurofins KinaseProfiler radiometric kinase assay; type: biochemical; conditions: read-out: eEF-2K(h) % Residual activity
# T13 construct: purchased Eurofins KinaseProfiler (Eurofins Cerep)
# LOK(h) = target: T14, LOK(h) (Homo sapiens, UniProt O94804); test: Eurofins KinaseProfiler radiometric kinase assay; type: biochemical; conditions: for LOK inhibition: 10 µM; for remaining activity at 10 µM: read-out: LOK(h) % Residual activity
# T14 construct: purchased Eurofins KinaseProfiler (Eurofins Cerep)
# TAK1(h) = target: T15, TAK1(h) (Homo sapiens, UniProt O43318); test: Eurofins KinaseProfiler radiometric kinase assay; type: biochemical; conditions: read-out: TAK1(h) % Residual activity
# T15 construct: purchased Eurofins (Eurofins Cerep) KinaseProfiler
# [3] = target: T16, PI3 Kinase (p110α/p85α)(h) (Homo sapiens, UniProt P42336); test: Eurofins KinaseProfiler radiometric kinase assay; type: biochemical; conditions: read-out: PI3 Kinase (p110α/p85α)(h) % Residual activity
# T16 construct: purchased Eurofins (Eurofins Cerep) KinaseProfiler
# Plk3(h) = target: T17, Plk3(h) (Homo sapiens, UniProt Q9H4B4); test: Eurofins KinaseProfiler radiometric kinase assay; type: biochemical; conditions: read-out: Plk3(h) % Residual activity
# T17 construct: purchased Eurofins KinaseProfiler (Eurofins Cerep)
# [4] = test system: primary rat cerebellar granule neurons (CGNs); test: Neurotoxicity, cell viability in CGNs (MTT); type: cell-based; conditions: 5, 10, and 25 μM, 24 h
# Protocol: A preliminary cell viability assessment was conducted in primary rat cerebellar granule neurons (CGNs), which are considered a reliable model for studying cellular and molecular mechanisms of survival/apoptosis and neurodegeneration/neuroprotection.
# Primary cerebellar granule cells were dissociated from cerebella and plated on 96-well plates, previously coated with 10 μg/mL poly-L-lysine, at a density of 1.2 × 10^5 cells/0.2 mL medium/well in BME supplemented with 10% heat-inactivated FBS (Life Technologies), 2 mmol/L glutamine, 100 μmol/L gentamicin sulfate, and 25 mM KCl (all from Sigma-Aldrich). Sixteen hours later, 10 μM cytosine arabinofuranoside (Sigma-Aldrich) was added to avoid glial proliferation. After 7 days in vitro, differentiated neurons were shifted to serum-free BME medium and exposed to increasing concentrations (5 μM, 10 μM, 25 μM) of compounds of interest for 24 h. Then, cell viability was evaluated through the MTT assay.
# For MTT assay, thiazolyl blue was added to the culture medium at a final concentration of 0.1 mg/mL. Following a 20 min incubation at 37 °C in the dark, the MTT precipitate was dissolved in 0.1 M Tris–HCl pH 7.5 buffer containing 5% Triton X-100 (all from Sigma-Aldrich) and absorbance was read at 570 nm in a microplate spectrophotometric reader (Bio-Rad).
# Aurora-A(h) = target: T18, Aurora-A(h) (Homo sapiens, UniProt O14965); test: Eurofins KinaseProfiler radiometric kinase assay; type: biochemical; conditions: read-out: Aurora-A(h) % Residual activity
# T18 construct: purchased Eurofins KinaseProfiler (Eurofins Cerep)
# mTOR(h) = target: T19, mTOR(h) (Homo sapiens, UniProt P42345); test: Eurofins KinaseProfiler radiometric kinase assay; type: biochemical; conditions: read-out: mTOR(h) % Residual activity
# T19 construct: purchased Eurofins KinaseProfiler (Eurofins Cerep)
# FYNα [5] = target: T6, FYNα; test: Fyn kinetics, ATP competition (Lineweaver–Burk); conditions: 0.05 and 0.3 μM compound; ATP 1.5 to 24 μM
# T14 sequence (O94804 whole entry): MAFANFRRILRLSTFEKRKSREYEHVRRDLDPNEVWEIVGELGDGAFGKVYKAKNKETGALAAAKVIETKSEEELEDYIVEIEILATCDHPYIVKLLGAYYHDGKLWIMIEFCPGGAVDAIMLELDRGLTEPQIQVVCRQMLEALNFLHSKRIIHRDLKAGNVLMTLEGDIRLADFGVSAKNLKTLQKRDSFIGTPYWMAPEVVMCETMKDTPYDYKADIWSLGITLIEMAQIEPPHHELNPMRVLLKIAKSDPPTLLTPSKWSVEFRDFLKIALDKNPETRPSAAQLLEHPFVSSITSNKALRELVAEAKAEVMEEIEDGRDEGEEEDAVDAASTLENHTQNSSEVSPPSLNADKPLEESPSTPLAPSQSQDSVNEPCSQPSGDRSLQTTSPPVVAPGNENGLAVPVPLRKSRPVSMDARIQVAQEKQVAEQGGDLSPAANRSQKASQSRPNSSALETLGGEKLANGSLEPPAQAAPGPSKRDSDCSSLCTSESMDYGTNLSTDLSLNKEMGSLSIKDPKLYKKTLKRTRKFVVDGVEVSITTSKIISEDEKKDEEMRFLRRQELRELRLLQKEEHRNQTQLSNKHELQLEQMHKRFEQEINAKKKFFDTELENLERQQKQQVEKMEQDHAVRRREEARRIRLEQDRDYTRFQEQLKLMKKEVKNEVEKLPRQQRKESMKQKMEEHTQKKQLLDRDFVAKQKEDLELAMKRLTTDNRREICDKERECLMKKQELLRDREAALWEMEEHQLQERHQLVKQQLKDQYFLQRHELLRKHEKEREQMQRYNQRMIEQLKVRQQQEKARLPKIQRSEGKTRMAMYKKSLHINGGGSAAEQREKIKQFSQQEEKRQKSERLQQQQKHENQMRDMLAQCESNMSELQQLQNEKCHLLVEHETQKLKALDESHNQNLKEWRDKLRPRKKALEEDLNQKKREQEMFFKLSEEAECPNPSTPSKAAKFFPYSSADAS
# T6 sequence (P06241 whole entry): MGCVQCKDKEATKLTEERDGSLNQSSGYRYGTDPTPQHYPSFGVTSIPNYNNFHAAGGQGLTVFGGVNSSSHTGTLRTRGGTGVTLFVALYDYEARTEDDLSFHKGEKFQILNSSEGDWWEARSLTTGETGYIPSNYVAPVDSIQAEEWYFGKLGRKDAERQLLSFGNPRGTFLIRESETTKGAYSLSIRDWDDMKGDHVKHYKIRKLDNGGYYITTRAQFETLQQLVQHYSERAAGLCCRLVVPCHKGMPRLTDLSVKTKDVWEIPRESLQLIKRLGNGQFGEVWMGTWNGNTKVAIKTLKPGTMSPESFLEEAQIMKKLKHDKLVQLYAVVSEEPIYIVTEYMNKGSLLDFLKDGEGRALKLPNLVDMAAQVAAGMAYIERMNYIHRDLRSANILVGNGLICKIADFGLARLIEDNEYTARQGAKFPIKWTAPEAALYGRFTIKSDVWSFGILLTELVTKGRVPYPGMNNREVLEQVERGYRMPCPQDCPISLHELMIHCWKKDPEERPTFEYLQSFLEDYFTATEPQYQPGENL
# T8 sequence (Q13976 whole entry): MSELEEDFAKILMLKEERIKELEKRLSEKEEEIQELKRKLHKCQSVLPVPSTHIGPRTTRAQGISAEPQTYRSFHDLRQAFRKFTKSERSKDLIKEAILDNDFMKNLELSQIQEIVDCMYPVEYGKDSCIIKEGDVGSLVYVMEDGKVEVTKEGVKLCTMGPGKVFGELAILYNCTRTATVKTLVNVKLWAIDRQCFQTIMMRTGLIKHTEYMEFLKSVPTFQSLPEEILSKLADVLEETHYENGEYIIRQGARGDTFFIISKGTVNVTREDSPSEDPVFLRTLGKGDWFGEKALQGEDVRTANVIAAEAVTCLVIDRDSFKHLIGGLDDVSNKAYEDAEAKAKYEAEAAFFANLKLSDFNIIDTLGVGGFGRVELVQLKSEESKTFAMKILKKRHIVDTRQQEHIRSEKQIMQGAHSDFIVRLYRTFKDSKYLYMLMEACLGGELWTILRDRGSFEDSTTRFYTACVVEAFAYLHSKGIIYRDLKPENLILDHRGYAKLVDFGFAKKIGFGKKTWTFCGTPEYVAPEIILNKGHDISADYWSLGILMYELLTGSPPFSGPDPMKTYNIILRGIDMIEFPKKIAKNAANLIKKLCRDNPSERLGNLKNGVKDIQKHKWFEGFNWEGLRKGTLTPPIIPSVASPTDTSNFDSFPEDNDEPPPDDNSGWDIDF
# T15 sequence (O43318 1-303 limits assumed): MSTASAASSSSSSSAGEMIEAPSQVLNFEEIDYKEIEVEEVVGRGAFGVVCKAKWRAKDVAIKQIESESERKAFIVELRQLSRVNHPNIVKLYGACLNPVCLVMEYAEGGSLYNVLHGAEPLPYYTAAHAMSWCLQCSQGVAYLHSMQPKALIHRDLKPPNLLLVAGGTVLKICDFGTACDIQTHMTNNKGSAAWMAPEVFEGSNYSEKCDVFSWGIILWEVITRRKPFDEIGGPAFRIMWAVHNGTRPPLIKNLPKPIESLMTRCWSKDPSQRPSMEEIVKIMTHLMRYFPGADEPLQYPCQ
# T9 sequence (P04049 whole entry): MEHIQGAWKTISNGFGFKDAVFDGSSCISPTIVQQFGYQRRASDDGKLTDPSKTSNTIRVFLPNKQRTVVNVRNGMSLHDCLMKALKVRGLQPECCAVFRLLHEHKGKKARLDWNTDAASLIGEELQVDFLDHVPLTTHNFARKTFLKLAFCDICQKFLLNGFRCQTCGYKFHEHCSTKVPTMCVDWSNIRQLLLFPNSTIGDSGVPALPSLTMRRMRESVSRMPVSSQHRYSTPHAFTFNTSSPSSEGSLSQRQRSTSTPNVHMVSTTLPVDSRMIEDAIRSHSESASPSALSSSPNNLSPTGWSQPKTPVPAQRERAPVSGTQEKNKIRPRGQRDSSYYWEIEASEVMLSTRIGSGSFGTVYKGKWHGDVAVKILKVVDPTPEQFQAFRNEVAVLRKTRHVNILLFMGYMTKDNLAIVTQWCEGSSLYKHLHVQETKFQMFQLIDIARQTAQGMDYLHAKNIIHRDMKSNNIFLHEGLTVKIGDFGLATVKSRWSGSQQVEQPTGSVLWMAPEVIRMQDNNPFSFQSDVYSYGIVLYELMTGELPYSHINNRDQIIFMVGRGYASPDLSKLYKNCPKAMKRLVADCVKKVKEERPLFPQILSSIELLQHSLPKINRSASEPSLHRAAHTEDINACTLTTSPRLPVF
# T4 sequence (Q9HCP0 whole entry): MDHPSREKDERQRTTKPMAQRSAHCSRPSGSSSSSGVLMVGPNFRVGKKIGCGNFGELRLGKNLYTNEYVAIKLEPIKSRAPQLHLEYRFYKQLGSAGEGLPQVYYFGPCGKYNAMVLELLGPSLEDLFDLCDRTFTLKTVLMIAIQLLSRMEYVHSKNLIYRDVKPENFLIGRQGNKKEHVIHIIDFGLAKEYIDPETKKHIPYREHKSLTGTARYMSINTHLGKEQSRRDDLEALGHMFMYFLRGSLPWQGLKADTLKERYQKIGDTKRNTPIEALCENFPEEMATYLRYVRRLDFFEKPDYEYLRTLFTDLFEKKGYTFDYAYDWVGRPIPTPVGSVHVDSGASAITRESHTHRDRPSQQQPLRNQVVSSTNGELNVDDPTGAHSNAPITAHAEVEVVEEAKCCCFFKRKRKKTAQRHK
# T3 sequence (P11309 whole entry): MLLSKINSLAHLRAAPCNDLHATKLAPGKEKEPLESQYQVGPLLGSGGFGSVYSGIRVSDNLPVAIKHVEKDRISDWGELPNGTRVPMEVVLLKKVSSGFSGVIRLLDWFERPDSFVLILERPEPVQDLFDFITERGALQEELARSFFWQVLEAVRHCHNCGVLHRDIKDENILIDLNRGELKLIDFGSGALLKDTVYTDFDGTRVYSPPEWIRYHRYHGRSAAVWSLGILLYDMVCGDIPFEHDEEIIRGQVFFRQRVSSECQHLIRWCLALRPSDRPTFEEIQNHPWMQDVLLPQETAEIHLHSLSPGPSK
# T18 sequence (O14965 whole entry): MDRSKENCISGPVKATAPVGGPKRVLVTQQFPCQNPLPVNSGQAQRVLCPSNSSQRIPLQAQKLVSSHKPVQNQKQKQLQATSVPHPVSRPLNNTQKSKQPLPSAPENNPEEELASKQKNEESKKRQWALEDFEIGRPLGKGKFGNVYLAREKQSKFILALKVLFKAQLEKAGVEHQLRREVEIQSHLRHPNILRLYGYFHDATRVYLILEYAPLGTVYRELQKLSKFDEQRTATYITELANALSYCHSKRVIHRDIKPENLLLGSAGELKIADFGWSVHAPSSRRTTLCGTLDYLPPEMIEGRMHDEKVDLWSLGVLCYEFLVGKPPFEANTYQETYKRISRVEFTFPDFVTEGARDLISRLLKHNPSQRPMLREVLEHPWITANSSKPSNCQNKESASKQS
# T13 sequence (O00418 whole entry): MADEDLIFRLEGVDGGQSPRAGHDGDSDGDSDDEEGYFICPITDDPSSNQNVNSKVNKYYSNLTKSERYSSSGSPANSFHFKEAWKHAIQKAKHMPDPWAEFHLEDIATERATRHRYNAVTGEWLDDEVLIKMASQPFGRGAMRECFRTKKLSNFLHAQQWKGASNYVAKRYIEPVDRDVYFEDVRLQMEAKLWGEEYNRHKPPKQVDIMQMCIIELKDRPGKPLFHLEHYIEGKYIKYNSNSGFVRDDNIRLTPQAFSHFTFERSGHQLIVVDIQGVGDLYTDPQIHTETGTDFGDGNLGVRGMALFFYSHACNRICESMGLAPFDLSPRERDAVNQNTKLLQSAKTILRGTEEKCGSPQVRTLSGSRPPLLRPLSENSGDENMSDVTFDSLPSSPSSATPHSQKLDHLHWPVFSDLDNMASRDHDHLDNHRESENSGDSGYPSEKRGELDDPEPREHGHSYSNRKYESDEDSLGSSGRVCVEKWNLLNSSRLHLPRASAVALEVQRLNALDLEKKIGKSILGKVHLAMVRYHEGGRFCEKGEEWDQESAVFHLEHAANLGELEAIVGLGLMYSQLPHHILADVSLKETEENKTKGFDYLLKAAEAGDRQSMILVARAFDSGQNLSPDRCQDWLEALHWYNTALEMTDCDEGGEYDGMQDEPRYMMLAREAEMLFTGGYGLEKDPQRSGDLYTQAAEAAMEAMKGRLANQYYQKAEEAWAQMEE
remaining activity at 10 µM (PI3 Kinase (p120γ)(h)) [%],remaining activity at 10 µM (EphB4(h)) [%],remaining activity at 10 µM (Pim-1(h)) [%],remaining activity at 10 µM (CK1γ1(h)) [%],remaining activity at 10 µM (IGF-1R(h)) [%],IC50 (FYNα [2]) [nM],remaining activity at 10 µM (ASK1(h)) [%],remaining activity at 10 µM (PKG1α(h)) [%],remaining activity at 10 µM (c-RAF(h)) [%],remaining activity at 10 µM (CDK2/cyclinA(h)) [%],remaining activity at 10 µM (IRAK4(h)) [%],remaining activity at 10 µM (CDK1/cyclinB(h)) [%],remaining activity at 10 µM (eEF-2K(h)) [%],LOK inhibition (LOK(h)),remaining activity at 10 µM (LOK(h)) [%],remaining activity at 10 µM (TAK1(h)) [%],remaining activity at 10 µM [3] [%],remaining activity at 10 µM (Plk3(h)) [%],Compound,TREM2 expression (M2 marker) vs LPS [1],iNOS expression (M1 marker) vs LPS [1],other results
80,109,20,93,83,50 ± 10,72,80,52,27,52,27,121,completely inhibited,4,49,97,89,"Br.Cc1sc(NCc2ccccc2)nc1-c1c[nH]c2ncc(Br)cc12 [Compound 41, N-Benzyl-4-(5-bromo-1H-pyrrolo[2,3-b]pyridin-3-yl)-5-methylthiazol-2-amine Hydrobromide]",no significant variations,notably decreased the M1 marker at both tested concentrations,remaining activity at 10 µM (GSK3β(h)): 58%; Increase in registered cell viability in comparison to control [4]: amplified; Neurotoxicity on CGNs (cell viability compared to control) [4]: not neurotoxic; remaining activity at 10 µM (Aurora-A(h)): 11%; remaining activity at 10 µM (mTOR(h)): 86%
94,108,55,77,68,44 ± 3,97,40,34,16,31,20,108,completely inhibited,4,30,96,96,"Br.Cc1sc(NCc2ccnc(Cl)c2)nc1-c1c[nH]c2ncccc12 [Compound 43, N-((2-Chloropyridin-4-yl)methyl)-5-methyl-4-(1H-pyrrolo[2,3-b]pyridin-3-yl)thiazol-2-amine Hydrobromide]",no significant variations,significantly reduced the M1 marker only at the highest concentration,Mechanism of Fyn inhibition with respect to ATP (FYNα [5]): competitive inhibition with respect to ATP; Increase in registered cell viability in comparison to control [4]: amplified; Neurotoxicity on CGNs (cell viability compared to control) [4]: not neurotoxic; remaining activity at 10 µM (Aurora-A(h)): 27%; remaining activity at 10 µM (mTOR(h)): 97%
